Experimental data: patent publication EP0745595A1, “3-(3-Aryloxyphenyl)-1-(substituted methyl)-s-triazine-2,4,6-oxo or thiotrione herbicidal agents” (American Cyanamid Company, priority 1995, dated 1996)

What was measured:
Assay type in all cases: in vivo
GALIUM APARINE = test: Preemergence herbicidal evaluation, GALAP (Galium); conditions: four to five weeks after treatment
In short: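 Rated 0-9 by visual comparison with control (stand, vigor, malformation, size, chlorosis, overall appearance) four to five weeks after preemergence soil spray. Dose equivalent to about 0.125 to 0.50 kg per hectare, applied in aqueous acetone to freshly seeded cups kept in greenhouse.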

[1] = test system: SETARIA VIRIDIS, (L) BEAU; test: Postemergence herbicidal evaluation, SETVI (Foxtail, Green); design: key to SETVI rating / Herbicidal effect rating, SETVI / SETVI: 0-9 visual rating scale vs untreated control; conditions: for SETVI, herbicide rating (0-9): rated four to five weeks after treatment, averaged
In short: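 Under usual greenhouse care after spraying, plants were examined four to five weeks on and given a 0–9 score relative to control. Application rate was about 0.125–0.500 kg/ha on ~two-week-old seedlings.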

[2] = test system: GLYCINE MAX(L) MERR. CV. WILLIAMS; test: Postemergence herbicidal evaluation, GLXMAW (Soybean, Williams); design: key to GLXMAW rating / Herbicidal effect rating, GLXMAW / GLXMAW: 0-9 visual rating scale vs untreated control
In short: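 Soybean seedlings (Williams) were raised in jiffy flats for roughly two weeks, then sprayed postemergence through a nozzle at 40 psi with test compound dispersed in 50/50 acetone/water containing 0.5% TWEEN®20. Treated plants were kept on greenhouse benches under normal care and visually rated on a 0-9 scale four to five weeks later.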

[3] = test system: ORYZA SATIVA, L. TEBONNET; test: Postemergence herbicidal evaluation, ORYSAT (Rice, Tebonnet); design: key: 0-9 visual rating scale vs untreated control
In short: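 Rice (Tebonnet) seedlings raised in jiffy flats for roughly two weeks were sprayed postemergence at 40 psi with compound dispersed in 50/50 acetone/water containing 0.5% TWEEN®20. The plants were then kept on greenhouse benches under standard care and visually scored on a 0-9 scale against a control four to five weeks after treatment.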

SAGITTARIA PYGMAEA, L. = test: Preemergence weed control under flooded paddy conditions, SAGPY (Arrowhead (Pygmaea)); conditions: for SAGPY: pre-weed; for SAGPY herbicidal rating: preemergence weeds, rated three to four weeks after treatment
In short: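 Flooded paddy preemergence test: seeds/propagating organs in top 0.5 cm silt loam, water held 1.5-3 cm above soil. Dosing by pipette into flood water, aqueous/acetone 50/50 v/v, ~0.5, 0.25, 0.125, 0.063 kg/ha a.i. Greenhouse; read at 3-4 wk, 0-9 visual scale.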

Row | SMILES | GALAP rating (GALIUM APARINE; Rate 0.125 kg/ha) | GALAP rating (GALIUM APARINE; Rate 0.250 kg/ha) | GALAP rating (GALIUM APARINE; Rate 0.500 kg/ha) | Herbicidal effect rating, SETVI ([1]; 0.031 kg/ha) | Herbicidal effect rating, SETVI ([1]; 0.063 kg/ha) | Herbicidal effect rating, SETVI ([1]; 0.125 kg/ha) | Herbicidal effect rating, SETVI ([1]; 0.250 kg/ha) | Herbicidal effect rating, GLXMAW ([2]; 0.031 kg/ha) | Herbicidal effect rating, GLXMAW ([2]; 0.063 kg/ha) | Herbicidal effect rating, GLXMAW ([2]; 0.125 kg/ha) | Herbicidal effect rating, GLXMAW ([2]; 0.250 kg/ha) | Herbicidal effect rating, ORYSAT ([3]; 0.031 kg/ha) | Herbicidal effect rating, ORYSAT ([3]; 0.063 kg/ha) | Herbicidal effect rating, ORYSAT ([3]; 0.125 kg/ha) | Herbicidal effect rating, ORYSAT ([3]; 0.250 kg/ha) | further results
1 | COC(=O)Cn1c(=O)n(C)c(=O)n(-c2cc(Oc3c(F)cc(C(F)(F)F)cc3Cl)ccc2F)c1=O [Compound 4, Methyl 3-{5-[(2-chloro-α,α,α,6-tetrafluoro-p-tolyl)oxy]-2-fluorophenyl}tetrahydro-5-methyl-2,4,6-trioxo-s-triazine-1(2H)-acetate] | 7.3 | 9.0 | 9.0 | 6.9 | 8.6 | 9.0 | 9.0 | 5.1 | 5.7 | 6.4 | 7.3 | 4.6 | 5.0 | 5.7 | 6.4 | SETVI, herbicide rating (0-9) ([1]; Rate 0.125 kg/ha): 9.0; SETVI, herbicide rating (0-9) ([1]; Rate 0.250 kg/ha): 9.0; SETVI, herbicide rating (0-9) ([1]; Rate 0.500 kg/ha): 9.0
2 | COC(=O)Cn1c(=O)n(C)c(=O)n(-c2cc(Oc3ccc(C(F)(F)F)cc3Cl)ccc2[N+](=O)[O-])c1=O [Compound 3, Methyl 3-{5-[(2-chloro-α,α,α-trifluoro-p-tolyl)oxy]-2-nitrophenyl}tetrahydro-5-methyl-2,4,6-trioxo-s-triazine-1(2H)-acetate] | 7.3 | 8.4 | 9.0 | 3.9 | 5.1 | 6.8 | 7.9 | 4.8 | 5.3 | 5.9 | 6.3 | 4.9 | 5.1 | 5.7 | 6.6 | SAGPY (SAGITTARIA PYGMAEA, L.; Rate 0.031 kg/ha): 0.0; SAGPY (SAGITTARIA PYGMAEA, L.; Rate 0.063 kg/ha): 0.0; SAGPY (SAGITTARIA PYGMAEA, L.; Rate 0.125 kg/ha): 0.0; SAGPY (SAGITTARIA PYGMAEA, L.; Rate 0.250 kg/ha): 0.0; SAGPY herbicidal rating (SAGITTARIA PYGMAEA, L.; Rate 0.063 kg/ha): 0.0; SAGPY herbicidal rating (SAGITTARIA PYGMAEA, L.; Rate 0.125 kg/ha): 0.0; SAGPY herbicidal rating (SAGITTARIA PYGMAEA, L.; Rate 0.250 kg/ha): 0.0; SAGPY herbicidal rating (SAGITTARIA PYGMAEA, L.; Rate 0.500 kg/ha): 0.0
